The assay deals with T1, wild-type LRRK2 (Homo sapiens, UniProt Q5S007).
T1 construct: DNA tag for qPCR detection (not a peptide; the protein part that carries it is not described); made in house; host or cells: HEK 293 cells (the same paragraph also describes T7 phage grown in E. coli BL21)
Description: Inhibitory activity against LRRK2: competition binding to ligand-affinity beads, DNA-tagged kinase quantitated by qPCR. Particulars: % of ctrl; for remaining binding at 0.01 µM: 10 nM compound, read-out: LRRK2(WT) Remaining kinase activity(%) at 10 nM; for remaining binding at 0.05 µM: 50 nM compound, read-out: LRRK2(WT) Remaining kinase activity(%) at 50 nM. As for the experimental part: Representative compounds synthesized in Example 1 were assayed for inhibitory activity against wild-type LRRK2 and mutant LRRK2 (G2019S), and the results are summarized in Tables 2 and 3. In brief, a T7 phase strain carrying the wild-type kinase consisting of amino acid residues from H970 to E2527 of human-derived LRRK2 (Accession no. NP_940980.3) or a T7 phase strain carrying the G2019S mutation kinase was infected into E. coli strain BL21 which was then grown until log phase. After infection with T7 phases (multiplicity of infection=0.4), the cells were cultured at 32° C. for 90-150 minutes while shaking. Then, E. coli lysates were centrifuged (6,000×g) and the supernatant was filtered through a 0.2-μm filter. The kinases were produced in HEK 293 cells. In this regard, DNA was tagged to obtain DNA-tagged kinases for qPCR detection. For use in analyzing the kinases, affinity resins were prepared by treating streptavidin-coated magnetic beads with biotinylated small molecule ligands at room temperature for 30 minutes. Then, the liganded beads were blocked with an excess of biotin and washed with a blocking buffer (SeaBlock (Pierce), 1% BSA, 0.05% Tween 20, 1 mM DTT) to remove unbound ligands and thus to reduce the binding of non-specific phages. […] After one hour of incubation, the affinity beads were washed with a wash buffer (1×PBS, 0.05% Tween 20), resuspended in an elution buffer (1×PBS, 0.05% Tween 20, 0.5 μM non-biotinylated affinity ligand), and incubated at room temperature for 30 minutes while shaking. Afterwards, concentrations of wild-type LRRK2 and mutant LRRK2 (G2019S) in the eluted samples were quantitated by qPCR. Activity values are expressed as percentages relative to the control (% of ctrl). The compounds used in the activity assay were prepared into 40× stocks in 100% DMSO. The stocks were directly diluted during analysis procedures.
Table 2 includes inhibitory activities of the representative compounds of the present disclosure at 100 nM against wild-type LRRK2 and mutant LRRK2 (G2019S) while Table 3 includes inhibitory activities of the representative compounds at 10 nM and 50 nM against wild-type LRRK2. (+++ less than 10%; ++ less than 30%; + less than 50%; −50% or higher)
(In general: Real-time PCR tracks product formation cycle by cycle.)

T1 sequence (Q5S007 970-2527): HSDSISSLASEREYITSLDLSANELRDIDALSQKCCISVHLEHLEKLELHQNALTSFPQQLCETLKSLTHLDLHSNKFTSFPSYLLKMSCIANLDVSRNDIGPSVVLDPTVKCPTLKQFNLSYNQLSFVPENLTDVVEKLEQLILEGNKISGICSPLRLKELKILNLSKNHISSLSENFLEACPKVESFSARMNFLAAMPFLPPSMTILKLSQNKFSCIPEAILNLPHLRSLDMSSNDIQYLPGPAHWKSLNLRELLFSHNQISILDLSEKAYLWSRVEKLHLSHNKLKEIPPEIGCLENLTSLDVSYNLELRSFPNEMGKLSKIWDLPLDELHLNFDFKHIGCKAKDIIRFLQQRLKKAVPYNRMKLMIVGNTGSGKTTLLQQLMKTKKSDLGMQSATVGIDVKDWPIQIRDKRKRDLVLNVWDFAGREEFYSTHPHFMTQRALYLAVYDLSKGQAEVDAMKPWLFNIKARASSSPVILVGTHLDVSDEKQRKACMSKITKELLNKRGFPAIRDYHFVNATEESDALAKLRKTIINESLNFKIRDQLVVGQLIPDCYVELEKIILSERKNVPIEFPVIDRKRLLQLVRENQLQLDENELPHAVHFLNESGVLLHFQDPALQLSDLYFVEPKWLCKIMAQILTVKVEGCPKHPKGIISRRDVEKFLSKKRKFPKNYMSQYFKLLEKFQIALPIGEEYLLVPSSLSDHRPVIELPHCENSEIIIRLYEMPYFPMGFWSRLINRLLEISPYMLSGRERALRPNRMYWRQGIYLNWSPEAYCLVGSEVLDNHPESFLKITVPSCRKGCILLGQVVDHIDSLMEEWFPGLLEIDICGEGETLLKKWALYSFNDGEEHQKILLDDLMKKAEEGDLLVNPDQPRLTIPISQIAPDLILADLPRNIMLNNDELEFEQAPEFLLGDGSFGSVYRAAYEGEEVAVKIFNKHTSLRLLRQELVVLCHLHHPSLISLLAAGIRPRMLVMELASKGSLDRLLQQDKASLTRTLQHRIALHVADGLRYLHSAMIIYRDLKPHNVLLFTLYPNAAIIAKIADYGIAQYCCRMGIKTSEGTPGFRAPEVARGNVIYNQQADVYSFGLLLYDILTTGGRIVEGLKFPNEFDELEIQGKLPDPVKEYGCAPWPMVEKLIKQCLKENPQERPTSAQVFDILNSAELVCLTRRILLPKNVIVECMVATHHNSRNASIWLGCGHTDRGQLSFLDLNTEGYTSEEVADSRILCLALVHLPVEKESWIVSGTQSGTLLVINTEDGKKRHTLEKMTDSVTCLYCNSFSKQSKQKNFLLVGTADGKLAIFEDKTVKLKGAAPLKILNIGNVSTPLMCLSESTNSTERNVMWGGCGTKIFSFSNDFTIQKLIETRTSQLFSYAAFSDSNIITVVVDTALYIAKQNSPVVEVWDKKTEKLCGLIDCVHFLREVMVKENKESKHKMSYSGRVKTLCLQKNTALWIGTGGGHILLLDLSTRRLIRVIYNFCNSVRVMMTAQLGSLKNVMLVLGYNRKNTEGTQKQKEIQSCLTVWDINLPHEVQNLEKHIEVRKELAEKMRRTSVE

In the case of `COc1cc(C(=O)N2CCN(C(C)C)CC2)ccc1Nc1ncc(Cl)c(-c2cnn(C(C)C)c2)n1` [Compound 64, (4-((5-chloro-4-(1-isopropyl-1H-pyrazol-4-yl)pyrimidin-2-yl)amino)-3-methoxyphenyl)(4-isopropylpiperazin-1-yl)methanone], the remaining binding at 0.01 µM is less than 30% and the remaining binding at 0.05 µM was less than 10%.

As to `COc1cc(C(=O)N2CCN(C)CC2)ccc1Nc1ncc(Cl)c(-c2cnn(C(C)C)c2)n1` [Compound 62, (4-((5-chloro-4-(1-isopropyl-1H-pyrazol-4-yl)pyrimidin-2-yl)amino)-3-methoxyphenyl)(4-methylpiperazin-1-yl)methanone], the remaining binding at 0.01 µM is less than 30% and the remaining binding at 0.05 µM was less than 10%.

Take `COc1cc(C(=O)N2CCC(N3CCCC3)CC2)ccc1Nc1ncc(Cl)c(-c2cnn(C(C)C)c2)n1` [Compound 216, (4-((5-chloro-4-(1-isopropyl-1H-pyrazol-4-yl)pyrimidin-2-yl)amino)-3-methoxyphenyl)(4-(pyrrolidin-1-yl)piperidin-1-yl)methanone]: the remaining binding at 0.01 µM is less than 50% and the remaining binding at 0.05 µM is less than 10%.

With `COc1cc(C(=O)N2CCN(C)CC2)c(F)cc1Nc1ncc(Cl)c(-c2cnn(C(C)C)c2)n1` [Compound 104, (4-((5-chloro-4-(1-isopropyl-1H-pyrazol-4-yl)pyrimidin-2-yl)amino)-2-fluoro-5-methoxyphenyl)(4-methylpiperazin-1-yl)methanone], the remaining binding at 0.01 µM is not below 50% and the remaining binding at 0.05 µM was less than 30%.

For `COc1cc(C(=O)NC(C)c2ccccc2)ccc1Nc1ncc(Cl)c(-c2cnn(C(C)C)c2)n1` (centres unmarked) [Compound 179, 4-((5-chloro-4-(1-isopropyl-1H-pyrazol-4-yl)pyrimidin-2-yl)amino)-3-methoxy-N-(1-phenylethyl)benzamide], the remaining binding at 0.01 µM is not below 50% and the remaining binding at 0.05 µM is less than 50%.

For the compound `COc1cc(C(=O)N2CCC(N3CCCCC3)CC2)ccc1Nc1ncc(Cl)c(-c2cnn(C(C)C)c2)n1` [Compound 217, [1,4′-bipiperidin]-1′-yl(4-((5-chloro-4-(1-isopropyl-1H-pyrazol-4-yl)pyrimidin-2-yl)amino)-3-methoxyphenyl)methanone], the remaining binding at 0.01 µM is less than 30% and the remaining binding at 0.05 µM was less than 10%.

As to `CC(C)n1cc(-c2nc(Nc3ccc(C(=O)N4CCN(C)CC4)cc3OC(F)F)ncc2Cl)cn1` [Compound 108, (4-((5-chloro-4-(1-isopropyl-1H-pyrazol-4-yl)pyrimidin-2-yl)amino)-3-(difluoromethoxy)phenyl)(4-methylpiperazin-1-yl)methanone], the remaining binding at 0.01 µM is not below 50% and the remaining binding at 0.05 µM was less than 30%.

`COc1cc(C(=O)Nc2ccc3c(c2)CCN3C(C)=O)ccc1Nc1ncc(Cl)c(-c2cnn(C(C)C)c2)n1` [Compound 212, N-(1-acetylindolin-5-yl)-4-((5-chloro-4-(1-isopropyl-1H-pyrazol-4-yl)pyrimidin-2-yl)amino)-3-methoxybenzamide]: the remaining binding at 0.01 µM is not below 50% and the remaining binding at 0.05 µM was less than 50%.

For the compound `COc1cc(C(=O)NCc2ccc(N)cc2)ccc1Nc1ncc(Cl)c(-c2cnn(C(C)C)c2)n1` [Compound 183, N-(4-aminobenzyl)-4-((5-chloro-4-(1-isopropyl-1H-pyrazol-4-yl)pyrimidin-2-yl)amino)-3-methoxybenzamide], the remaining binding at 0.01 µM is not below 50% and the remaining binding at 0.05 µM is less than 30%.

For the compound `COc1cc(C(=O)NCCS(C)(=O)=O)ccc1Nc1ncc(Cl)c(-c2cnn(C(C)C)c2)n1` [Compound 192, 4-((5-chloro-4-(1-isopropyl-1H-pyrazol-4-yl)pyrimidin-2-yl)amino)-3-methoxy-N-(2-(methylsulfonyl)ethyl)benzamide], the remaining binding at 0.01 µM is not below 50% and the remaining binding at 0.05 µM was less than 30%.

In the case of `Cc1cc(C(=O)N2CCN(C)CC2)ccc1Nc1ncc(Cl)c(-c2cnn(C(C)C)c2)n1` [Compound 109, (4-((5-chloro-4-(1-isopropyl-1H-pyrazol-4-yl)pyrimidin-2-yl)amino)-3-methylphenyl)(4-methylpiperazin-1-yl)methanone], the remaining binding at 0.01 µM was not below 50% and the remaining binding at 0.05 µM was less than 30%.

Regarding `COc1cc(C(=O)N2C[C@H]3CC[C@@H](C2)O3)ccc1Nc1ncc(Cl)c(-c2cnn(C(C)C)c2)n1` [Compound 89, ((1R,5S)-8-oxa-3-azabicyclo[3.2.1]octan-3-yl)(4-((5-chloro-4-(1-isopropyl-1H-pyrazol-4-yl)pyrimidin-2-yl)amino)-3-methoxyphenyl)methanone], the remaining binding at 0.01 µM was not below 50% and the remaining binding at 0.05 µM was less than 30%.

For the compound `COc1cc(C(=O)NC2CC2)ccc1Nc1ncc(Cl)c(-c2cnn(C(C)C)c2)n1` [Compound 82, 4-((5-chloro-4-(1-isopropyl-1H-pyrazol-4-yl)pyrimidin-2-yl)amino)-N-cyclopropyl-3-methoxybenzamide], the remaining binding at 0.01 µM was less than 50% and the remaining binding at 0.05 µM was less than 30%.

`COc1cc(C(=O)N(C)CCO)ccc1Nc1ncc(Cl)c(-c2cnn(C(C)C)c2)n1` [Compound 141, 4-((5-chloro-4-(1-isopropyl-1H-pyrazol-4-yl)pyrimidin-2-yl)amino)-N-(2-hydroxyethyl)-3-methoxy-N-methylbenzamide]: the remaining binding at 0.01 µM is not below 50% and the remaining binding at 0.05 µM was less than 30%.

As for `COc1cc(C(=O)NCC(OC)OC)ccc1Nc1ncc(Cl)c(-c2cnn(C(C)C)c2)n1` [Compound 198, 4-((5-chloro-4-(1-isopropyl-1H-pyrazol-4-yl)pyrimidin-2-yl)amino)-N-(2,2-dimethoxyethyl)-3-methoxybenzamide], the remaining binding at 0.01 µM is not below 50% and the remaining binding at 0.05 µM was less than 50%.

Turning to `COc1cc(C(=O)N2CC3(COC3)C2)ccc1Nc1ncc(Cl)c(-c2cnn(C(C)C)c2)n1` [Compound 90, (4-((5-chloro-4-(1-isopropyl-1H-pyrazol-4-yl)pyrimidin-2-yl)amino)-3-methoxyphenyl)(2-oxa-6-azaspiro[3.3]heptan-6-yl)methanone], the remaining binding at 0.01 µM was not below 50% and the remaining binding at 0.05 µM is less than 30%.

`COc1cc(C(=O)Nc2cccc(NS(C)(=O)=O)c2)ccc1Nc1ncc(Cl)c(-c2cnn(C(C)C)c2)n1` [Compound 190, 4-((5-chloro-4-(1-isopropyl-1H-pyrazol-4-yl)pyrimidin-2-yl)amino)-3-methoxy-N-(3-(methylsulfonamido)phenyl)benzamide]: the remaining binding at 0.01 µM was not below 50% and the remaining binding at 0.05 µM is less than 50%.

`COc1ccc(CNC(=O)c2ccc(Nc3ncc(Cl)c(-c4cnn(C(C)C)c4)n3)c(OC)c2)cc1` [Compound 203, 4-((5-chloro-4-(1-isopropyl-1H-pyrazol-4-yl)pyrimidin-2-yl)amino)-3-methoxy-N-(4-methoxybenzyl)benzamide]: the remaining binding at 0.01 µM is not below 50% and the remaining binding at 0.05 µM was less than 50%.

Turning to `COc1cc(C(=O)N2CCC(N(C)C)CC2)ccc1Nc1ncc(Cl)c(-c2cnn(C(C)C)c2)n1` [Compound 94, (4-((5-chloro-4-(1-isopropyl-1H-pyrazol-4-yl)pyrimidin-2-yl)amino)-3-methoxyphenyl)(4-(dimethylamino)piperidin-1-yl)methanone], the remaining binding at 0.01 µM was less than 30% and the remaining binding at 0.05 µM is less than 10%.

As for `COc1cc(C(=O)N2CCC(OC)CC2)ccc1Nc1ncc(Cl)c(-c2cnn(C(C)C)c2)n1` [Compound 76, (4-((5-chloro-4-(1-isopropyl-1H-pyrazol-4-yl)pyrimidin-2-yl)amino)-3-methoxyphenyl)(4-methoxypiperidin-1-yl)methanone], the remaining binding at 0.01 µM is less than 50% and the remaining binding at 0.05 µM is less than 30%.

Turning to `COc1cc(C(=O)Nc2cccc(S(N)(=O)=O)c2)ccc1Nc1ncc(Cl)c(-c2cnn(C(C)C)c2)n1` [Compound 191, 4-((5-chloro-4-(1-isopropyl-1H-pyrazol-4-yl)pyrimidin-2-yl)amino)-3-methoxy-N-(3-sulfamoylphenyl)benzamide], the remaining binding at 0.01 µM was not below 50% and the remaining binding at 0.05 µM was less than 30%.

Turning to `COc1cc(C(=O)Nc2ccccc2)ccc1Nc1ncc(Cl)c(-c2cnn(C(C)C)c2)n1` [Compound 112, 4-((5-chloro-4-(1-isopropyl-1H-pyrazol-4-yl)pyrimidin-2-yl)amino)-3-methoxy-N-phenylbenzamide], the remaining binding at 0.01 µM is less than 50% and the remaining binding at 0.05 µM is less than 30%.

The values are drawn from patent publication US20240254103A9, “NOVEL PYRIMIDINE DERIVATIVE, AND COMPOSITION FOR PREVENTING OR TREATING NEURODEGENERATIVE DISEASES AND CANCER, COMPRISING SAME” (WHAN IN PHARMACEUTICAL CO., LTD., priority 2020, published 2024).
